Reference: article PMC9867241, “Antioxidant and Cytotoxic Activity of New Polyphenolic Derivatives of Quinazolin-4(3H)-one: Synthesis and In Vitro Activities Evaluation” (Pharmaceutics, 2022)
Values after ≈ are worked out from the molar mass of the structure shown.

What was measured:
[1] = NO˙ radical scavenging assay (Griess reaction); settings: PBS pH 7.4, sodium nitroprusside
Description: The scavenging of the NO˙ radical was performed by applying previously reported protocols. The in vitro protocol describes the decomposition of sodium nitroprusside in phosphate buffered saline (PBS) at pH = 7.4. The NO˙ radicals would be involved in a Griess reaction if they were not captured by the tested compounds. This reaction results from the formation of an azo dye, with maximum absorption at 546 nm. This azo dye is formed from sulfanilic acid and naphthyl ethylenediamine dichloride.

[2] = Cupric reducing antioxidant capacity (CUPRAC) assay; set-up: concentration or dose not given beside the values; settings: for CUPRAC, % of Activity of Trolox: relative to Trolox; for CUPRAC, % of Activity of Ascorbic Acid: relative to ascorbic acid
Description: The ability to donate electrons was evaluated for the compounds 5a–d and 6a–d, by the CUPRAC (CUPric reducing antioxidant capacity) method. The absorbance was measured against a blank sample, at λ = 450 nm. The assay was performed based on our group’s previous report by the adaptation of the initial report of Alam et al., Özyürek et al. and Apak et al.. With the use of Equation (4), the cupric ion reduction by compounds 5a–d and 6a–d was expressed as a percentage of the reference compound activity.
The Cu^2+ ions are reduced to Cu^+ ions by the electron-donating compounds. The Cu^+ ions are chelated by neocuproine, giving a colored complex with absorbance proportional to the quantity of Cu^+ ions that resulted.

[3] = Reducing power (RP) assay; set-up: concentration or dose not given beside the values; settings: for RP, % of Activity of Trolox: relative to Trolox; for RP, % of Activity of Ascorbic Acid: relative to ascorbic acid
Description: Herein, the iron (III) is not free in the solution as it was in the FRAP assay and is complexed by cyanide ions. The evaluation of the reducing power (RP) was performed at a pH closer to neutral (pH = 6.6); this is different from the FRAP test, which is performed in an acidic environment. Against a blank sample, the absorbances were measured at λ = 700 nm. The followed protocol was based on the adaptation of previously reported protocols and was previously reported by our group. Using Equation (4), we calculated the reducing power of the 5a–d and 6a–d compounds as a percentage of the reference compounds activity.
The evaluated compounds can reduce ferricyanide to ferrocyanide, in the presence of ferric ions, resulting in the Perl’s Prussian which gives blue. The higher the percentage of reducing power, the higher was the absorbance that was measured due to a higher amount of colored complex resulting from the reaction.

[4] = Fe^2+ chelation assay (ferrozine competition)
Description: In the protocol used for evaluating the Fe^2+ chelating ability of the compounds, the absorbances of the solutions were determined at λ = 562 nm, against a blank sample. The method was adapted from the initial report of Benzie and Strain et al., which was previously reported by our group. Using Equation (5), we calculated the iron chelation capacities of the 5a–d and 6a–d compounds:(5) iron chelation (%)=control absorbance−sample absorbance/control absorbance×100
The chelating capacity of the tested compounds of Fe^2+ was evaluated based on their competition for Fe^2+ with ferrozine.

[5] = tested on: LNCaP (prostate carcinoma) cells; test: Cytotoxicity, Alamar blue assay, LNCaP cells; type: cell-based; settings: Homo sapiens, 24 h exposure
Description: (§1) Normal human foreskin (BJ) fibroblasts and two types of cancer cells, namely A549 (lung adenocarcinoma) and LNCaP (prostate carcinoma) purchased from American Type Culture Collection (Manassas, VA, USA), were used in the experiments. Each cell line was maintained in a different culture medium, depending on the metabolic necessities of the cells. BJ cells were maintained in Dulbecco’s modified Eagle’s medium (DMEM) with low glucose. A549 cells were maintained in DMEM with high glucose […], while LNCaP cells were grown in Roswell Park Memorial Institute (RPMI) 1640 medium with high glucose (5 g/L). All media used were supplemented with 10% fetal bovine serum (FBS) and were refreshed every two days. Cells were used in experiments or subcultured when they reached 70–80% confluence.
(§2) In 100 µL in 96-well plates, a number of 30,000 LNCaP cells, 15,000 A549 cells, and 7500 normal (BJ) cells were seeded. Because the cells have different sizes and volumes, the purpose of the different seedings was to achieve a confluency of 70–80% after 24 h. All types of cells were further exposed to the synthesized compounds (5a–d and 6a–d) for 24 h, at a concentration ranging from 12.5 to 100 µg/mL. Post-exposure, the media were removed, and the cells were washed with phosphate buffer saline (PBS). Their viability was evaluated using Alamar blue (AB) assay as previously described. Briefly, the cells were incubated with a 200 µM resazurin solution for 4 h. Using a Synergy 2 multi-mode microplate reader, we measured the fluorescence. The measurement was performed at λexcitation = 530/25 nm; λemission = 590/35 nm. We conducted the experiments using three biological replicates, each one including 6 technical replicates. As negative controls (NC), cells exposed to culture medium containing 0.2% DMSO were used. Compared to the NC (100%), the results were expressed as relative values. We used IC50 values for the potency evaluation, and calculated them for each cell line, using the dose-effect curves obtained by fitting the experimental data with a 4-parameter logistic curve.
(§3) Mean values ± standard deviation (SD) values of at least three biological replicates were used to calculate experimental data. One-way analysis of variance (ANOVA) with a post hoc Holm–Sidak test was used to statistically examine the data. Using SigmaPlot 11.0 software (Systat, Software Inc., Chicago, IL, USA), we performed the graphical display and data analysis. From a statistical point of view, the results were considered different, at values of p < 0.05.

[6] = tested on: A549 (lung adenocarcinoma) cells; test: Cytotoxicity, Alamar blue assay, A549 cells; type: cell-based; settings: Homo sapiens, 24 h exposure
Description: as §1, §2, §3

[7] = DPPH˙ radical scavenging assay
Description: The stock solutions (1 mg/mL) of the tested compounds and the controls were obtained, by dissolving the substances in dimethyl sulfoxide (DMSO). Using Jasco V-530, an UV-VIS spectrophotometer (Jasco International Co., Ltd., Tokyo, Japan), we performed the colorimetric determinations in low-volume single-use 10 mm width cuvettes.
The assays were performed in triplicate and the results are presented as averages for each assay.
The DPPH˙ radical scavenging assay is based on the transfer of one hydrogen from the analyzed compound to the violet stable free radical DPPH˙ (2,2-diphenyl-1-picrylhydrazyl), as we convert it into a yellow compound. The absorbance of the reagent mixed with samples presented inversely proportional values to the amount of DPPH˙ neutralized. The absorbance of the reagent was measured at λ = 517 nm, according to our previous reports. The assay was made in the presence of various concentrations of samples. The used protocol is based on the report of Brand-Williams et al..

IC50 [7]	IC50 (DPPH˙ scavenging) [7]	SMILES	% of NO˙ Scavenged [1]	CUPRAC, % of Activity of Trolox [2]	CUPRAC, % of Activity of Ascorbic Acid [2]	RP, % of Activity of Trolox [3]	RP, % of Activity of Ascorbic Acid [3]	Ferrous ions Chelation Capacity (%) ([4]; 17.70 µg/mL)	Ferrous ions Chelation Capacity (%) ([4]; 20.59 µg/mL)	Ferrous ions Chelation Capacity (%) ([4]; 29.41 µg/mL)	Ferrous ions Chelation Capacity (%) ([4]; 44.11 µg/mL)	Ferrous ions Chelation Capacity (%) ([4]; 58.82 µg/mL)	Ferrous ions Chelation Capacity (%) ([4]; 88.23 µg/mL)	Ferrous ions Chelation Capacity (%) ([4]; 117.64 µg/mL)	Ferrous ions Chelation Capacity (%) ([4]; 257.46 µg/mL)	Ferrous ions Chelation Capacity (%) ([4]; 343.28 µg/mL)	IC50 [5]	IC50 [6]	% of DPPH˙ Scavenging ([7]; 1.25 µg/mL)	% of DPPH˙ Scavenging ([7]; 2.5 µg/mL)	also measured
> 30 µM	>15 µg/mL	C=CCn1c(SCC(=O)NN=C(C)c2ccc(O)cc2O)nc2ccccc2c1=O [Compound 6a, 2-((3-Allyl-4-oxo-3,4-dihydroquinazolin-2-yl)thio)-N’-(1-(2,4-dihydroxyphenyl)ethylidene)acetohydrazide]	31.82%	12.83%	13.46%	30.73%	21.09%	- (- represents less than 5%)	- (- represents less than 5%)	- (- represents less than 5%)	- (- represents less than 5%)	- (- represents less than 5%)	- (- represents less than 5%)	- (- represents less than 5%)	- (- represents less than 5%)	- (- represents less than 5%)	43.4 µg/mL	35.7 µg/mL	- (- represents less than 5%)	- (- represents less than 5%)	% of DPPH˙ Scavenging ([7]; 3.75 µg/mL): - (- represents less than 5%); % of DPPH˙ Scavenging ([7]; 5 µg/mL): - (- represents less than 5%); % of DPPH˙ Scavenging ([7]; 7.5 µg/mL): - (- represents less than 5%); % of DPPH˙ Scavenging ([7]; 10 µg/mL): - (- represents less than 5%); % of DPPH˙ Scavenging ([7]; 12.5 µg/mL): 12.28%; % of DPPH˙ Scavenging ([7]; 15 µg/mL): 21.34%
7.6 µM	3.62 µg/mL (≈ 7.6 µM)	O=C(CSc1nc2ccccc2c(=O)n1Cc1ccccc1)NN=Cc1ccc(O)c(O)c1O [Compound 5b, 2-((3-Benzyl-4-oxo-3,4-dihydroquinazolin-2-yl)thio)-N’-(2,3,4-trihydroxybenzylidene)acetohydrazide]	36.75%	92.75%	97.31%	85.68%	58.80%	- (- represents less than 5%)	- (- represents less than 5%)	- (- represents less than 5%)	- (- represents less than 5%)	- (- represents less than 5%)	- (- represents less than 5%)	- (- represents less than 5%)	19.02%	35.16%	70 µg/mL	69.5 µg/mL	37.55%	45.21%	% of DPPH˙ Scavenging ([7]; 3.75 µg/mL): 51.00%; % of DPPH˙ Scavenging ([7]; 5 µg/mL): 56.36%; % of DPPH˙ Scavenging ([7]; 7.5 µg/mL): 69.66%; % of DPPH˙ Scavenging ([7]; 10 µg/mL): 81.12%; % of DPPH˙ Scavenging ([7]; 12.5 µg/mL): + (+ represents more than 95%); % of DPPH˙ Scavenging ([7]; 15 µg/mL): + (+ represents more than 95%)
4.46 µM	1.85 µg/mL (≈ 4.46 µM)	CCn1c(SCC(=O)NN=Cc2ccc(O)c(O)c2O)nc2ccccc2c1=O [Compound 5c, 2-((3-Ethyl-4-oxo-3,4-dihydroquinazolin-2-yl)thio)-N’-(2,3,4-trihydroxybenzylidene)acetohydrazide]	43.21%	110.95%	116.41%	72.75%	49.93%	- (- represents less than 5%)	- (- represents less than 5%)	- (- represents less than 5%)	- (- represents less than 5%)	- (- represents less than 5%)	- (- represents less than 5%)	20.27%	65.75%	89.24%	35.9 µg/mL	49.1 µg/mL	44.32%	55.40%	% of DPPH˙ Scavenging ([7]; 3.75 µg/mL): 64.87%; % of DPPH˙ Scavenging ([7]; 5 µg/mL): 73.44%; % of DPPH˙ Scavenging ([7]; 7.5 µg/mL): 90.15%; % of DPPH˙ Scavenging ([7]; 10 µg/mL): + (+ represents more than 95%); % of DPPH˙ Scavenging ([7]; 12.5 µg/mL): + (+ represents more than 95%); % of DPPH˙ Scavenging ([7]; 15 µg/mL): + (+ represents more than 95%)
